Consider two substances from patent US9096643B2, “Cell-protective peptides and uses thereof” (priority 2010, dated 2015).

Data set [1] has as its system Lewis rats. The conditions noted are these: rat, in vivo, sc.
Description: Cardiac constructs were made by encapsulation of neonatal Lewis rat cardiomyocytes in Az-chitosan-QHREDGS or Az-chitosan-RGDS. A total of 2×10^6 cardiomyocytes were resuspended in 15 μL of ice cold cardiomyocytes medium with 30% FBS for at least 10 min. These cells were then encapsulated in 100 μL of the hydrogel in transwell plates and constructs (2 mm thick and 6 mm in diameter) were produced. A total of 8 samples were made for each type of hydrogel, and 4 from each group were implanted, while the other 4 were retained as in vitro controls. Samples were cultured at 37° C. for 5 d before they were implanted in vivo.
Cardiac constructs described above were inserted subcutaneously into the abdomen of Lewis rats. Four samples were implanted for each type of hydrogel. […] Quantification of total SMA and Factor VIII was performed using ImageScope v10 (Aperio Technologies) and mean intensities were averaged for six fields for each sample and normalized to total area. […] Apoptosis was assessed using a TUNEL assay (Roche Applied Science) following the manufacturer's standard protocol.
Data set [2] has as its system neonatal rat CMs (heart cells). Briefly: Live/dead (CFDA/PI) staining of heart cells on coated surfaces. It is filed as cell-based, rat (Sprague-Dawley). The conditions noted are these: one and three days of incubation, FIG. 2. Here is the method: The day before cells were ready to be seeded, the surfaces in the 12-well plates were sterilized by germicidal UV illumination overnight. The PBS surrounding the surfaces was then aspirated off and 100,000 live cells were pipetted onto each surface in 100 μL of culture media. These surfaces were left in the incubator for 20 to 30 min to allow the cells to begin to adhere, and then supplemented with 1 mL of warm CM media. The cells were cultivated for 8 days, with 100% culture media change every 2-3 days. The initial seeding density of heart cells on peptide-chitosan coated surfaces was 88 cells/mm^2. […] Each type of surface was created in triplicate.
Live dead staining was performed using 5-carboxyfluorescein diacetate acetoxymethly ester (CFDA, Invitrogen), which stains live cells green, and with propidium iodide (PI, Invitrogen), which stains dead cells red, according to the manufacturer's instruction. The samples were incubated in 10 μM of CFDA and 75 μL/mL of PI in PBS for 45 min at 37° C. Three different surfaces were analyzed for each type of sample (N=3) and a total of five images were taken for each surface to get a full representation of the viability of the cells on a surface. In order to quantify the viability, the numbers of live and dead cells were counted separately using the cell counter plug-in on ImageJ.

Data set [3] concerns human iPS cells BJ1D. The data set is described as follows: iPS cell apoptosis, Apo-ONE Caspase 3/7. It is filed as cell-based. The conditions noted are these: 50 μM, five passages, vs PBS and scrambled peptide, FIG. 12A. Here is the method: (§1) Human iPS cells were treated for 5 passages and levels of apoptosis were measured 3 days after passaging using the Apo-ONE Homogeneous Caspase assay (Promega) according to manufacturers instructions. The levels of Caspase 3/7 activation were proportional to levels of fluorescence. All statistical analyses were performed using the two-tailed student t-test assuming unequal variance. p<0.05 denote statistical significance.
(§2) IPS cells, BJ1D or 0901B, were treated with 5 μM or 50 μM of QHREDGS peptide, or 50 μM DGQESHR scrambled peptide in PBS with a PBS treated control for five passages and assayed for apoptosis using the APO One Caspase 3/7 system. The levels of Caspase 3/7 activation are proportional to fluorescence. […] Solid bars represent a statistical significance, p<0.05.

Data set [4] has as its system human iPS cells 0901B. The data set is described as follows: iPS cell apoptosis, Apo-ONE Caspase 3/7. It counts as cell-based. As to conditions: 50 μM, five passages, vs PBS and scrambled peptide, FIG. 12B. On the procedure:
as §1, §2

For data set [5], the system named is human iPS cells BJ1D. Briefly: iPS cell dose-response, CFDA-Live/PI-Dead live cell count. The conditions noted are these: 50 μM soluble peptide, passage 5, vs PBS, p=0.028, FIG. 10. It counts as cell-based. On the procedure:
The human iPS cells (BJ1D and 0901B) were obtained from the Ontario iPSC Facility and used following the hiPS cell research guidelines of the University of Toronto as described by Hotta et al. Nat. Protoc. 4, 1828-1844 (2009)), unless specified otherwise. Cells were cultured on a feeder layer of MEF cells (Mount Sinai Hospital Toronto, inactivated with 10 μg/ml mitomycin C and seeded at 1.8×10^5 per 3.5 cm dish). For single cell cultures, hiPS cell colonies were dissociated in 0.25% Trypsin-EDTA (Invitrogen) for 5 min, followed by trituration with a pipette. To ensure a single-cell suspension, the dissociated cells were passed through a 40 μm cell strainer (BD Falcon) and seeded onto MEF plates at 10 cells/ml, 10 cm plates. Cells were allowed to grow for 7 days and the total number of colonies was counted. […] Cells were analyzed after 5 passages in continuous treatment with 50 μM QHREDGS, 50 μM DGQESHR, or PBS, unless specified otherwise.
Human iPS cells were treated for 5 passages and stained for CFDA-Live/PI-Dead as described in Rask et al. J. Biomed. […] Live cells were counted using the cell counter plug in for ImageJ Immunohistochemistry was performed as described above (Rask et al., ibid). […]
To determine the optimal concentration of QHREDGS for iPSC expansion, a dose-response experiment was performed. […] Live cells were counted using the cell counter plug in for ImageJ.

Data set [6] concerns Human ESC-derived cardiac cells (Hes2). Briefly: Total cell number of monolayer human ESC-derived cardiac cells. It counts as cell-based. The conditions noted are these: 50 μM, 10 days, vs PBS control and DGQESHR. Here is the method:
Human ESC-derived cardiac cell culture, were derived from Day 20 EBs, consisting of greater than 50% cardiomyocytes obtained by directed differentiation of human ES (Hes2) cells as described by Yang et al. (Nature 453, 524-528 (2008)). EBs were dissociated using Collagenase I (Invitrogen) for 2 hrs and 0.05% Trypsin-EDTA (Invitrogen) for 5 min and plated at 40000 cells/cm^2 onto 0.2% gelatin-coated plates in Stempro 34 medium supplemented with VEGF (10 ng/ml) and DKK1 (150 ng/ml). Cells were cultured in the presence of 50 μM QHREDGS, 50 μM DGQESHR (Biomatik) or PBS until they formed a beating monolayer, around 10 days. Peptides were replenished during media changes every 3 days. 100 μM H2O2 (Sigma, dissolved in PBS) was added to culture media for 10 min, washed, and analyzed immediately for CFDA-Live/PI-Dead. Live cells were counted using the cell counter plug in for ImageJ. 0.5 μM or 2.5 μM taxol (Sigma, dissolved in DMSO) was added to culture media for 24 hrs, and the extent of apoptosis was analyzed immediately using the Apo-ONE Homogeneous Caspase Assay (Promega), or TUNEL assay (Roche) as described above. A PBS control was used for H2O2 and DMSO control was used for taxol.

No end group written: not given here.

For the substance “Az-chitosan-QHREDGS: QHREDGS peptide covalently conjugated to Az-chitosan by EDC chemistry (also: covalently conjugated to Az-chitosan by EDC chemistry, site not given here)”, the “animal health / external signs of inflammation” value in data set [1] is “no external signs of inflammation”. In addition, in data set [2], the “cell viability (live/dead)” value is “significantly greater cell viability”.

In the case of QHREDGS (angiopoietin 1 peptide), the “Caspase 3/7 activity” value in data set [3] and in data set [4] was “significant reduction of Caspase 3/7 activity” each time. The “number of viable human iPS cells” value in data set [5] is given as “significant increase”. Further, the “increase in number of cardiac cells/well” value in data set [6] is “greater than 2 fold”.
